As usually defined, the GI50 is the concentration giving 50% growth inhibition. Broadly, the IC50 is the concentration that gives 50% inhibition. Usually Kd stands for a measure of binding affinity in units of concentration.

Test [1] in a line: Cytotoxicity against human MM1S cells after 72 hrs by CellTiter-Glo assay. Type of test: functional. The settings on record: MM1.S. (In general: In ATP-based viability assays light output follows the ATP content of the culture.)
Test [2] has as its target T1, Bromodomain and PHD finger-containing protein 3 (Homo sapiens, UniProt Q9ULD4).
T1 sequence (Q9ULD4 whole entry): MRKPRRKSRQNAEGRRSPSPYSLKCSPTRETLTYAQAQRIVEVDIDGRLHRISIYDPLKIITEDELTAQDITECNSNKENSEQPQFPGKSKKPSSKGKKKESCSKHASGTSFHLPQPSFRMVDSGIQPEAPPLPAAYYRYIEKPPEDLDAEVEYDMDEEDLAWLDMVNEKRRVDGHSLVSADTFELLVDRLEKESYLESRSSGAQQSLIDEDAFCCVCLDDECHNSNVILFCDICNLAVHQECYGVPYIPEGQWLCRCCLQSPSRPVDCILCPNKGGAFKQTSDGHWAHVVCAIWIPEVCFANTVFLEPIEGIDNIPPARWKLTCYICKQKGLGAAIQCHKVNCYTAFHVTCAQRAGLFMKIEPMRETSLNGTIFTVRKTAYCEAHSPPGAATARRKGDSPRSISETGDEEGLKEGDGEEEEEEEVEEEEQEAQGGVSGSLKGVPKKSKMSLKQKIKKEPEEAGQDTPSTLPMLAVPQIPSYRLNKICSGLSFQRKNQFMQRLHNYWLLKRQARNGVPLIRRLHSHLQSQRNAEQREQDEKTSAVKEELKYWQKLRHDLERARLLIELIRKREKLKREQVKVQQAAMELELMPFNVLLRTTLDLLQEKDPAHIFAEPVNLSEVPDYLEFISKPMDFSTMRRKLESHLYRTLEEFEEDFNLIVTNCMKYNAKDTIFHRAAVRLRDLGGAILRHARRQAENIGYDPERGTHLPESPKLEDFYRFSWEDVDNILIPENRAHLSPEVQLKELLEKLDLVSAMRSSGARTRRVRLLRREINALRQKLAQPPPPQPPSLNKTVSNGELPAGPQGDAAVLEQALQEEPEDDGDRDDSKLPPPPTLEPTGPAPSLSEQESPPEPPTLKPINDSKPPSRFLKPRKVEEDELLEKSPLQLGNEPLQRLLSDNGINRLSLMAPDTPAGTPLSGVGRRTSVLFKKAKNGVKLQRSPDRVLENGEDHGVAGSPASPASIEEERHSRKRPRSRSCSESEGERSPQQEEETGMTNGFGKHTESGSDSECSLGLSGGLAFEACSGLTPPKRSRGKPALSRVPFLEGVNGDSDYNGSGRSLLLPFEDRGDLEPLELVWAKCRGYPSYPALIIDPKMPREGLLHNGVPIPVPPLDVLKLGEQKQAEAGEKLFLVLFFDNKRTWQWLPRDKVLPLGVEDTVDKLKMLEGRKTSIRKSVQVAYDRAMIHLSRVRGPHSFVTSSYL
Put plainly: Inhibition of BRPF3 (unknown origin) by Alpha Screen assay.

In test [3] the test system is RKO. Put plainly: Cytotoxicity against human RKO cells at 5x10'-5 M to 8x10'-8 M after 72 hrs by CellTiter-Glo assay. Format: functional, cell-based.
Test [4] addresses T2, Bromodomain-containing protein 1 (Homo sapiens, UniProt O95696).
T2 sequence (O95696 whole entry): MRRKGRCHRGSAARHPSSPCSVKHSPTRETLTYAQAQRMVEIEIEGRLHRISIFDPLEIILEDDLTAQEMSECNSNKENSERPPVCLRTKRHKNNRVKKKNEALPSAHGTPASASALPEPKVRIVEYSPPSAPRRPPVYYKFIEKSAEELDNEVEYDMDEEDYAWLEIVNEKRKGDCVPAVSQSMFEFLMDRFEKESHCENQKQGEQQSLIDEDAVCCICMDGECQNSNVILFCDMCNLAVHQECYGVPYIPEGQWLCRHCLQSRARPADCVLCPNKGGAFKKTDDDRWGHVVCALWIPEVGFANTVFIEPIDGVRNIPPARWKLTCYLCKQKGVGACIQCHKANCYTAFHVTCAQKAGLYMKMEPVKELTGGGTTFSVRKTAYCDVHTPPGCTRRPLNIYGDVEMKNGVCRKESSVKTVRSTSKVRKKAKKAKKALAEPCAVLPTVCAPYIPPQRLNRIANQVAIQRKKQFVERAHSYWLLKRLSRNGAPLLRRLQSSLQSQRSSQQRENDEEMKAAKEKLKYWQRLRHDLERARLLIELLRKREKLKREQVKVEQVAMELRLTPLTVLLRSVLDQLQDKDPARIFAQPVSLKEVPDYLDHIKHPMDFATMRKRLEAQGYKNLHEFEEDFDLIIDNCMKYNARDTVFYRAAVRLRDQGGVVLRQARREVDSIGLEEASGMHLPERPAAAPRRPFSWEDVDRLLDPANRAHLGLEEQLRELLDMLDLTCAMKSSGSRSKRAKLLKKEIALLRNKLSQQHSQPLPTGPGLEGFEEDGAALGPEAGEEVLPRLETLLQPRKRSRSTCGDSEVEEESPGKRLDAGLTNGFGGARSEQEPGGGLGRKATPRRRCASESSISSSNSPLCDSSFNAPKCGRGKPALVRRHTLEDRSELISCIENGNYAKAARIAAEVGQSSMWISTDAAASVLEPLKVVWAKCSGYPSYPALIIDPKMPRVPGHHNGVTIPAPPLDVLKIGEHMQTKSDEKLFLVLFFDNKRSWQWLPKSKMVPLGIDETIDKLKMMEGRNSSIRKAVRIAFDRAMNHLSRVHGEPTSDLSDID
The experiment in a line: Binding affinity to BRPF2 BRD1 (unknown origin) by isothermal titration calorimetry. A general note: Isothermal titration calorimetry measures the heat released or taken up as one component is titrated into another.

Test [5] deals with T2, Bromodomain-containing protein 1. The experiment in a line: Inhibition of BRPF2 BRD1 (unknown origin) by Alpha Screen assay. A general note: Alpha assays give light when donor and acceptor beads are brought close together.
For test [6], the system named is JJN-3. Put plainly: Cytotoxicity against human JJN-3 cells at 5x10'-5 M to 8x10'-8 M after 72 hrs by CellTiter-Glo assay. Type of test: functional, cell-based.

Calls of active or inactive are those of the source. No cut-off for these calls is given here.

For the compound `COc1ccc(Oc2cc3c(cc2NS(=O)(=O)c2ccc(OC)c(OC)c2)n(C)c(=O)n3C)cc1`, in test [1], the 50% growth inhibitory concentration (GI50) is more than 10 µM. Further, the 50% inhibitory concentration (IC50) in test [2] turned out to be 7 µM; in test [5] it was 1750 nM. In addition, the result in test [3] and in test [6] was inactive. This compound yielded a Kd in test [4] of 1130 nM.
